We go through 1 compound from patent US20250367171A1, “THERAPEUTIC OR PROPHYLACTIC AGENT FOR PERIPHERAL NEUROPATHIES” (Toray Industries, Inc., priority 2017, published 2025).

In test [1] the test system is fetal rat dorsal root ganglion-derived established neuronal cell line ND15. The test is described as follows: Repair effect on cisplatin-induced cell damage (cell viability), post-treatment. As to conditions: ND15 cells, 24 hours cisplatin, then 2 hours post-treatment with compound 1 at 0.5, 5 or 50 μM. Type of test: cell-based. Here is the method:
A fetal rat dorsal root ganglion-derived established neuronal cell line ND15 was cultured in 10% FBS-containing DMEM. On the next day, the cells were cultured in 10% FBS-containing DMEM containing EC23 (10 μM, Reinner) for 8 days, for differentiation into neurons.
For measurement of cell viability, the medium was exchanged with DMEM/F12 medium containing alamarBlue (Invitrogen), followed by 2 hours of culture, and then the absorbance at wavelength of 570 nm and the absorbance at wavelength of 595 nm were measured. Cell viability was calculated using the ratio of the absorbance at wavelength of 570 nm to the absorbance at wavelength of 595 nm and the untreated group designated as 100%.
In a manner similar to Example 1, cell damage was induced to a fetal rat dorsal root ganglion-derived established neuronal cell line ND15 by the use of cisplatin, and then the cell viability was measured. After 24 hours of treatment with cisplatin, compound 1 was contained in a medium for 2 hours of treatment (final concentration of 0.5, 5 or 50 μM). Groups were composed of 6 groups: an untreated group; a 50 μM compound 1 treatment group; a cisplatin treatment group; a cisplatin and 0.5 μM compound 1 treatment group; a cisplatin and 5 μM compound 1 treatment group; and a cisplatin and 50 μM compound 1 treatment group.

Test [2] deals with rat bortezomib-induced peripheral neuropathy model. The test is described as follows: Mechanical allodynia (von Frey test) in rat bortezomib-induced peripheral neuropathy model. It is filed as in vivo. To be noted: 20 mg/kg oral single dose, day 15, 3 hours after administration, vs vehicle group. How it is done:
Bortezomib (0.2 mg/kg, AdooQ BioScience) was intraperitoneally administered 4 times in total to SD rats (6 weeks old, male; CHARLES RIVER LABORATORIES JAPAN, INC.) on days 1, 4, 8 and 11 after induction of pathological conditions, thereby preparing a bortezomib-induced peripheral neuropathy model. Here, the initial day of administration was designated as the 1st day (Day1) after induction of pathological conditions. Bortezomib was dissolved in dimethyl sulfoxide, and then Tween80 was added. Subsequently, water for injection was added to prepare a 0.2 mg/mL solution. The final concentration of dimethyl sulfoxide and that of Tween80 were each 5%.
On day 15 after induction of pathological conditions, a solution containing compound 1 (20 mg/kg) or a solvent thereof (water for injection) was orally administered to rats. Groups were composed of 2 groups: a solvent administration group (vehicle group) and a compound 1 (20 mg/kg) administration group.
Beneficial effects on mechanical allodynia were evaluated in a manner similar to Example 5, and this evaluation was performed before and on day 15 after induction of pathological conditions (3 hours after administration of compound 1).

For test [3], the system named is co-culture of rat dorsal root ganglion neurons and Schwann cells. The test is described as follows: Myelination in co-culture, MBP immunostaining, number of myelin sheath segments. Type of test: cell-based. To be noted: 30 μM with ascorbic acid treatment, vs vehicle treatment group. Here is the method: The dorsal root ganglion was excised from a fetus of a female SD rat at 15 days of pregnancy, and then neurons and Schwann precursor cells thereof were separately cultured (the initial day of cell culture was designated as Day 1). On day 19 from the initial day of cell culture (Day19), Schwann precursor cells were added to the culture of neurons to initiate co-culture. Myelination was induced by treatment with ascorbic acid (a total of 4 to 5 times in accordance with 2 to 3 times of medium exchange) on the 26th to 40th days (Days 26 to 40) from the initial day of cell culture.
In combination with ascorbic acid treatment, treatment with compound 1 dissolved in sterile distilled water (final concentration of 30 μM) was performed 4 to 5 times in total. As a control, treatment with sterile distilled water instead of the compound 1 solution was performed. Groups were composed of 2 groups: a sterile distilled water treatment group (Vehicle treatment group); and a 30 μM compound 1 treatment group (compound 1 treatment group). […]
Fluorescent images of MBP were taken with a fluorescence microscope (DMI4000B, Leica), and then the number of myelin sheath segments (≥25 μm) was analyzed based on the images. […]

Test [4] concerns rat streptozotocin-induced diabetes model. The experiment in a line: Mechanical allodynia (von Frey test) in rat streptozotocin-induced diabetes model. As to conditions: day 28, 3 hours after administration, vs vehicle group. Type of test: in vivo. Here is the method:
Streptozotocin (50 mg/kg, Sigma-Aldrich) was administered intravenously to SD rats (6 weeks old, male; CHARLES RIVER LABORATORIES JAPAN, INC.) via the tail vein, thereby preparing a streptozotocin-induced diabetes model. Streptozotocin was dissolved in physiological saline (Otsuka Pharmaceutical Factory, Inc.) to prepare a 25 mg/mL solution and then administered. Further, a pseudo-induction animal was also prepared by administering physiological saline instead of the streptozotocin solution. The initial day of administration was designated as day 0 after induction of pathological conditions.
[…] Groups were composed of 4 groups: a pseudo-induction and solvent administration group (sham group); a pathological condition-induced and solvent administration group (vehicle group); a pathological condition-induced and compound 1 (10 mg/kg) administration group (compound 1 (10 mg/kg) group); and a pathological condition-induced and compound 1 (30 mg/kg) administration group (compound 1 (30 mg/kg) group).
Beneficial effects on mechanical allodynia were evaluated in a manner similar to Example 5, and this evaluation was performed at 3 hours after administration of compound 1 on day 28 after induction of pathological conditions.

For `CN(C)C1CCN(C(=O)C[C@H](O)c2nccn2C)CC1` [Compound 1, (S)-1-(4-(dimethylamino)piperidin-1-yl)-3-hydroxy-3-(1-methyl-1H-imidazol-2-yl)propan-1-one], in test [1], the “cell viability (decrease caused by cisplatin)” value was “suppressed decrease”. The “50% response threshold in von Frey test (mechanical allodynia)” value in test [2] is “significant increase in 50% response threshold”; in test [4] (10 mg/kg oral single dose), “significant increases in 50% response threshold”; in test [4] (30 mg/kg oral single dose), “significant increases in 50% response threshold”. Besides, the “number of myelin sheath segments” value in test [3] is given as “Increased number of myelin sheath segments”.
